One experiment has as its target CDK4/CyclinD1 (Homo sapiens, UniProt P11802). In words: ADP Glo kinase assay, CDK4/CyclinD1. The experiment is classed as biochemical. Particulars: for remaining activity at 1 µM: compound at 1 μM, read-out: Residual enzymatic activity (%) at 1 μM, CDK4 D1; for Ki: Km ATP, read-out: Enzymatic inhibition, Ki, CDK4 D1. The gist of the method: (§1)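 First, compounds are diluted 1:3 across ten points from 10 to 0.0005 μM in 0.5% DMSO. Next, kinase reactions run at room temperature for an optimised period. Finally, ADP Glo reagent is added to stop them.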
Background: In ADP-Glo the light output rises with the ADP produced.

For the next experiment, the target named is CDK7/CyclinH/Mat1 (Homo sapiens, UniProt P50613). Put plainly: ADP Glo kinase assay, CDK7/CyclinH/Mat1. The experiment is classed as biochemical. Particulars: for remaining activity at 1 µM: compound at 1 μM, read-out: Residual enzymatic activity (%) at 1 μM, CDK7 H; for Ki: Km ATP, read-out: Enzymatic inhibition, Ki, CDK7 H. The gist of the method: as §1
Chain of CDK7/CyclinH/Mat1 (P50613 whole entry, species assumed): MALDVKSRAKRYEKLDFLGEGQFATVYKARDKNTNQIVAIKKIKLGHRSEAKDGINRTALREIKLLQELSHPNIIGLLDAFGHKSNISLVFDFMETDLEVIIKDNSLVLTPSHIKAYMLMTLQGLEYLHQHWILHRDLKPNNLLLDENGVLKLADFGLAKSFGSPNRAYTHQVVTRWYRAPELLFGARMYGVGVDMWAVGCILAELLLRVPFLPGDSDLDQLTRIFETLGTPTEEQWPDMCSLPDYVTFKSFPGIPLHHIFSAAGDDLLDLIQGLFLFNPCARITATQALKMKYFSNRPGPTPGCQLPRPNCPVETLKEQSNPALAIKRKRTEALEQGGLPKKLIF
Chain of CDK7/CyclinH/Mat1 (P51946 whole entry partner, species assumed): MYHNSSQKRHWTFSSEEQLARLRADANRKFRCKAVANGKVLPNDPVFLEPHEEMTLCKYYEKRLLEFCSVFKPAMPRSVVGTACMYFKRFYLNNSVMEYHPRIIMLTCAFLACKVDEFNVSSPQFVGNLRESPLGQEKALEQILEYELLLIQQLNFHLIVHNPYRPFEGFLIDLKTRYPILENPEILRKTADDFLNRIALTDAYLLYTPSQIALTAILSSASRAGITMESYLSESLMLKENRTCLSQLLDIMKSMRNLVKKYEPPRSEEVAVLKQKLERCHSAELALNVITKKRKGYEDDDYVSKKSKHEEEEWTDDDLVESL
Chain of CDK7/CyclinH/Mat1 (P51948 whole entry partner, species assumed): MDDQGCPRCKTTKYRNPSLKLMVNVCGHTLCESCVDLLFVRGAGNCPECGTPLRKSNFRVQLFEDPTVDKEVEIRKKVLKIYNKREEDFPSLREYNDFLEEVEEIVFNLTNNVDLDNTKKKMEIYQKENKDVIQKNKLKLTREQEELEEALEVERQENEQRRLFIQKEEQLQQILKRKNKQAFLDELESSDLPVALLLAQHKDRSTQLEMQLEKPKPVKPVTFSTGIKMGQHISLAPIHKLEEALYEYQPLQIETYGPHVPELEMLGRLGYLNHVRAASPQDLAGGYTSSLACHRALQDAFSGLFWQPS

The target of a further experiment is T1, FLT3-ITD (Homo sapiens, UniProt P36888).
T1 sequence (P36888 1-993): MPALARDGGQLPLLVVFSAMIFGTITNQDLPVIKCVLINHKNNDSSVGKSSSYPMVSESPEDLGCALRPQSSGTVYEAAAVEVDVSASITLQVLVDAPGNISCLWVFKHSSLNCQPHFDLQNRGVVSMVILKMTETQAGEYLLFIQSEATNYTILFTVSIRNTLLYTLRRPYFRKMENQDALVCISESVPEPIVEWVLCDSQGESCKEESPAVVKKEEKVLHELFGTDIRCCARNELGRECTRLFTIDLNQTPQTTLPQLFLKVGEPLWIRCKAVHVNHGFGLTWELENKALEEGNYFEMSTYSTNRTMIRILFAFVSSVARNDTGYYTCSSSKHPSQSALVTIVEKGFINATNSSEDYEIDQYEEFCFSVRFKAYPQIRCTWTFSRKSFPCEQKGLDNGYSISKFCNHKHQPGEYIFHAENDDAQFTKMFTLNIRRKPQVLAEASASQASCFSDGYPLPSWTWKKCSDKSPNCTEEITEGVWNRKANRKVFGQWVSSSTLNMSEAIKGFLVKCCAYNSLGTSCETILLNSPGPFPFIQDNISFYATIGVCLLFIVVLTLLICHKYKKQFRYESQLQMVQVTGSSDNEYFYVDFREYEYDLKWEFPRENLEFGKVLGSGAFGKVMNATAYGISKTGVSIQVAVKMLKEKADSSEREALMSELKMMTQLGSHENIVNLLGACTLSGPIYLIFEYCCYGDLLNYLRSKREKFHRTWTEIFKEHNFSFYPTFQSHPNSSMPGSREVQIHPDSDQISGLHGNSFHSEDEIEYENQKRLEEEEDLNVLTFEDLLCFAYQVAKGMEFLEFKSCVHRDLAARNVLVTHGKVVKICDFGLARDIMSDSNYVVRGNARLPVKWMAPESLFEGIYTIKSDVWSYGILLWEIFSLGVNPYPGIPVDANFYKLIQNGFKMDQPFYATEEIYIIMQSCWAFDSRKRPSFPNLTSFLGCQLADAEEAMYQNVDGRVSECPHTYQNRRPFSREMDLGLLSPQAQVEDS
In words: ADP Glo kinase assay, FLT3-ITD. It counts as biochemical. To be noted: Km ATP 100 μM, read-out: Enzymatic inhibition, Ki, FLT3-ITD. The gist of the method: as §1

In another experiment the target is CDK2/CyclinA2 (Homo sapiens, UniProt P24941). In words: ADP Glo kinase assay, CDK2/CyclinA2. Particulars: for remaining activity at 1 µM: compound at 1 μM, read-out: Residual enzymatic activity (%) at 1 μM, CDK2 A; for Ki: Km ATP, read-out: Enzymatic inhibition, Ki, CDK2 A. The experiment is classed as biochemical. The essentials: as §1
Another experiment deals with CDK9/CyclinT1 (Homo sapiens, UniProt P50750). Put plainly: ADP Glo kinase assay, CDK9/CyclinT1. It counts as biochemical. Particulars: CDK9/CyclinT1; Km ATP; read-out: Enzymatic inhibition, Ki, CDK9 T1. The gist of the method: as §1
Chain of CDK9/CyclinT1 (P50750 whole entry, species assumed): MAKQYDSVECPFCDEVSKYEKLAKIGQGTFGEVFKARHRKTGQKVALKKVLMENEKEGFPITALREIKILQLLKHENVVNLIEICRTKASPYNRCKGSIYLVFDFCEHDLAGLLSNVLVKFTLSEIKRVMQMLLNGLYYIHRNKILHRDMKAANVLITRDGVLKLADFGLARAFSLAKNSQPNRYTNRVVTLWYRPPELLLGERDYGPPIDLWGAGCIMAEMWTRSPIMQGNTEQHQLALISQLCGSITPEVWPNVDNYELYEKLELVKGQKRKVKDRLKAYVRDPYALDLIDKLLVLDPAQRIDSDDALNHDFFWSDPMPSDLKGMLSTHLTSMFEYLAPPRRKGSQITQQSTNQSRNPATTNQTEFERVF
Chain of CDK9/CyclinT1 (O60563 whole entry partner, species assumed): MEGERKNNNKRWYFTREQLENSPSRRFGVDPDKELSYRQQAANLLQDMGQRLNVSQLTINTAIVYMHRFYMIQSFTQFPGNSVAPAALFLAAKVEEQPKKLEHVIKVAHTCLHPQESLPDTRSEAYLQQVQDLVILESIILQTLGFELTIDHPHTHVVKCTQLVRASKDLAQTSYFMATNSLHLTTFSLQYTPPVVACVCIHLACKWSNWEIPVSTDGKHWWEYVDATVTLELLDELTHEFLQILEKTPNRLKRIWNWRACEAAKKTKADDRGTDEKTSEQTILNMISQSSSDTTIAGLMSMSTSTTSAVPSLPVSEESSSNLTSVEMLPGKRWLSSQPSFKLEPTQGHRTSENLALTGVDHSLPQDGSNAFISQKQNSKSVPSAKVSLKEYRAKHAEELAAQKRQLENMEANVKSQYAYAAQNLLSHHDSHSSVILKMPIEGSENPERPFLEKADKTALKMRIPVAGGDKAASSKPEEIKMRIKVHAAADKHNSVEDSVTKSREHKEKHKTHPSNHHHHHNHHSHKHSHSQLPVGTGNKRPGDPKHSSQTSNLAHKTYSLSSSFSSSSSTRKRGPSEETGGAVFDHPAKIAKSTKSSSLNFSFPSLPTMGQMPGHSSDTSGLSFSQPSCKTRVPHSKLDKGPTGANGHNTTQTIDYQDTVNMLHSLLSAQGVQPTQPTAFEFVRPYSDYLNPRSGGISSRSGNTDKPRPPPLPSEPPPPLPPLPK
The target of a further experiment is CDK1/CyclinB (Homo sapiens, UniProt P06493). Put plainly: ADP Glo kinase assay, CDK1/CyclinB. The experiment is classed as biochemical. Particulars: for remaining activity at 1 µM: compound at 1 μM, read-out: Residual enzymatic activity (%) at 1 μM, CDK1 B; for Ki: Km ATP, read-out: Enzymatic inhibition, Ki, CDK1 B. The gist of the method:
as §1

Another experiment has as its system MV-4-11. Put plainly: Proliferation assay (resazurin, leukemia cell lines), MV-4-11. The experiment is classed as cell-based. To be noted: Homo sapiens, MV4-11, read-out: 72 h Growth inhibition GI50, MV-4-11 cells. An excerpt: The following compounds were used as comparators.
In a further experiment the target is CDK6/CyclinD3 (Homo sapiens, UniProt Q00534). In words: ADP Glo kinase assay, CDK6/CyclinD3. The experiment is classed as biochemical. To be noted: for remaining activity at 1 µM: compound at 1 μM, read-out: Residual enzymatic activity (%) at 1 μM, CDK6 D3; for Ki: Km ATP, read-out: Enzymatic inhibition, Ki, CDK6 D3. The gist of the method:
as §1

The structures appear in SMILES notation. Bounds are passed on as bounds.

Chain of CDK4/CyclinD1 (P11802 whole entry, species assumed): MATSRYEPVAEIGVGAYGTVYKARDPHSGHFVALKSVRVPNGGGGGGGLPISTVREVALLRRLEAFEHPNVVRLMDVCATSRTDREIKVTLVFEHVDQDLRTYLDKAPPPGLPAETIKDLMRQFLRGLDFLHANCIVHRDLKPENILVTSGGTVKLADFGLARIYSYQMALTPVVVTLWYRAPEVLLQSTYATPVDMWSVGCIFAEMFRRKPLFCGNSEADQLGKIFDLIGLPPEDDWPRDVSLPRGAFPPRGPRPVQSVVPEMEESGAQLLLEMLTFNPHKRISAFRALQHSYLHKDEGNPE
Chain of CDK4/CyclinD1 (P24385 whole entry partner, species assumed): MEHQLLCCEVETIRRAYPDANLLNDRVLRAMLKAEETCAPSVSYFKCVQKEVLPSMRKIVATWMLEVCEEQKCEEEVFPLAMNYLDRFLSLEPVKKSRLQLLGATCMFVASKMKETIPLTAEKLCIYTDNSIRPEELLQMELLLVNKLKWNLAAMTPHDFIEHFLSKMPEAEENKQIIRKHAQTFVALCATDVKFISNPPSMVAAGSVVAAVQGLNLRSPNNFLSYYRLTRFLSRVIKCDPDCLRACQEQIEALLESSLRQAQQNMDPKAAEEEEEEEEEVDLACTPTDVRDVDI
Chain of CDK6/CyclinD3 (Q00534 whole entry, species assumed): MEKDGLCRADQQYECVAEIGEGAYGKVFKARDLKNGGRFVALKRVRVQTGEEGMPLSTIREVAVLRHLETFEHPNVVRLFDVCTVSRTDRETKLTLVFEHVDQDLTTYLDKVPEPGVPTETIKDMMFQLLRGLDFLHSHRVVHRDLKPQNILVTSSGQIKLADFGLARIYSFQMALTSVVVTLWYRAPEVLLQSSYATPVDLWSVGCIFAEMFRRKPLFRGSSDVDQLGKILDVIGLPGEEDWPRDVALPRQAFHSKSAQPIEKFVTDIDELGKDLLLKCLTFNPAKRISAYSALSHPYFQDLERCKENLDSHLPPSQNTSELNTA
Chain of CDK6/CyclinD3 (P30281 whole entry partner, species assumed): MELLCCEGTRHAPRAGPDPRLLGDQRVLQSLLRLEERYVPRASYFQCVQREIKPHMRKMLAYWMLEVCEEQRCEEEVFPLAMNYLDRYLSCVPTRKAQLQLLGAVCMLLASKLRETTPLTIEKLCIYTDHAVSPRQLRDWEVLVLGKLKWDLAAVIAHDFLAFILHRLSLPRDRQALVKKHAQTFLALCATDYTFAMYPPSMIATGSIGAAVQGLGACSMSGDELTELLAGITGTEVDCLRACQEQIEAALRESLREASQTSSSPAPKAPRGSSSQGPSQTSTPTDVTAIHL
Chain of CDK1/CyclinB (P06493 whole entry, species assumed): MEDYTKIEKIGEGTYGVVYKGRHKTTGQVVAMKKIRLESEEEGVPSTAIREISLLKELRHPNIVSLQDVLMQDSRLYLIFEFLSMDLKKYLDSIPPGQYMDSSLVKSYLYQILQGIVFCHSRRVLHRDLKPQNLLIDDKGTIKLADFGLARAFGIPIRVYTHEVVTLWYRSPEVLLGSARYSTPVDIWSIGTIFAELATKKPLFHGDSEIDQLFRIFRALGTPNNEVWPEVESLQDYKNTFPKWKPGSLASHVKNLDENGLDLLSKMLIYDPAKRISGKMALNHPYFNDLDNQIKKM
Chain of CDK1/CyclinB (P14635 whole entry partner, species assumed): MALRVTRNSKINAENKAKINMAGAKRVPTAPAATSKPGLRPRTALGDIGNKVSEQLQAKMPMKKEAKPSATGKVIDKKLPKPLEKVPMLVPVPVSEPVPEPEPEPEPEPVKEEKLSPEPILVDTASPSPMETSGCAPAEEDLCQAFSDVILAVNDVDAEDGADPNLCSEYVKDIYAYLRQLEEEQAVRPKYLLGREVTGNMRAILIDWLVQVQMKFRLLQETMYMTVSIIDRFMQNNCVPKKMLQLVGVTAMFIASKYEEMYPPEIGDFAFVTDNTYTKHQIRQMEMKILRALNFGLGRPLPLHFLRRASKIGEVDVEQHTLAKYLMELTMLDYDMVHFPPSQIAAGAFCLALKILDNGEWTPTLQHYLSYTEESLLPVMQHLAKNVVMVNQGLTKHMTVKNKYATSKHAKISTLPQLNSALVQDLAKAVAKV

Turning to `Fc1cnc(Nc2ccc(Cl)nc2)nc1-c1cnc2ccc(-c3ccccc3)cn12` [Compound 34, N-(6-Chloropyridin-3-yl)-5-fluoro-4-(6-phenylimidazo[1,2-a]pyridin-3-yl)pyrimidin-2-amine], the remaining activity at 1 µM on CDK4/CyclinD1 turned out to be 92%; at CDK7/CyclinH/Mat1, 92%; on CDK2/CyclinA2, 86%; on CDK1/CyclinB, 100%; on CDK6/CyclinD3, 47%. In addition, the inhibitory constant (Ki) (usually the equilibrium dissociation constant of an inhibitor or competing ligand from its target) was above 1000 nM at FLT3-ITD and 330 nM at CDK9/CyclinT1. Besides, the GI50 (usually the concentration giving 50% growth inhibition) with MV-4-11 turned out to be 920 nM.

For the compound `CN1CCN(c2ccc(Nc3nccc(-c4cnc5ccc(C(F)(F)F)cn45)n3)cn2)CC1` [Compound 36, N-(6-(4-Methylpiperazin-1-yl)pyridin-3-yl)-4-(6-(trifluoromethyl)imidazo[1,2-a]pyridin-3-yl)pyrimidin-2-amine], the inhibitory constant (Ki) at CDK4/CyclinD1 came to 530 nM; at FLT3-ITD it was 10 nM; at CDK2/CyclinA2, 131 nM; on CDK9/CyclinT1, 34 nM; at CDK1/CyclinB, 198 nM. Also, the remaining activity at 1 µM turned out to be 31% on CDK7/CyclinH/Mat1 and 34% on CDK6/CyclinD3. Besides, the GI50 in the experiment on MV-4-11 was 18 nM.

As for `CC(C)N1CCN(c2ccc(Nc3nccc(-c4cnc5ccc(Cl)cn45)n3)cn2)CC1` [Compound 37, 4-(6-Chloroimidazo[1,2-a]pyridin-3-yl)-N-(6-(4-isopropylpiperazin-1-yl)pyridin-3-yl)pyrimidin-2-amine], the Ki stood at 154 nM on CDK4/CyclinD1; 174 nM on CDK7/CyclinH/Mat1; 26 nM on FLT3-ITD; 72 nM on CDK2/CyclinA2; 14 nM at CDK9/CyclinT1; 151 nM at CDK1/CyclinB. In addition, the Ki on CDK6/CyclinD3 was found to be 215 nM. In addition, in the experiment on MV-4-11, the concentration for 50% growth inhibition (GI50) worked out at 24 nM.

Consider `CC(C)N1CCN(c2ccc(Nc3nccc(-c4cnc5ccc(-c6ccccc6)cn45)n3)cn2)CC1` [Compound 39, N-(6-(4-Isopropylpiperazin-1-yl)pyridin-3-yl)-4-(6-phenylimidazo[1,2-a]pyridin-3-yl)pyrimidin-2-amine], for which the remaining activity at 1 µM was 55% on CDK4/CyclinD1, 46% at CDK1/CyclinB and 41% at CDK6/CyclinD3. Further, the inhibitory constant (Ki) at CDK7/CyclinH/Mat1 worked out at 149 nM; at FLT3-ITD, 12 nM; on CDK2/CyclinA2, 563 nM; on CDK9/CyclinT1, 9 nM. In the experiment on MV-4-11, the GI50 was found to be 88 nM.

Regarding `CC(C)N1CCN(c2ccc(Nc3nccc(-c4cnc5ccc(-c6ccncc6)cn45)n3)cn2)CC1` [Compound 40, N-(6-(4-Isopropylpiperazin-1-yl)pyridin-3-yl)-4-(6-(pyridin-4-yl)imidazo[1,2-a]pyridin-3-yl)pyrimidin-2-amine], the remaining activity at 1 µM at CDK4/CyclinD1 was found to be 57%; at CDK7/CyclinH/Mat1 it was 32%; at CDK1/CyclinB, 41%; at CDK6/CyclinD3, 52%. In addition, the inhibitory constant (Ki) worked out at 11 nM on FLT3-ITD, 344 nM on CDK2/CyclinA2 and 12 nM at CDK9/CyclinT1. Besides, the GI50 in the experiment with MV-4-11 was found to be 47 nM.

Consider `CC(=O)N1CCN(c2ccc(Nc3nccc(-c4cnc5ccccn45)n3)cn2)CC1` [Compound 41, 1-(4-(5-((4-(Imidazo[1,2-a]pyridin-3-yl)pyrimidin-2-yl)amino)pyridin-2-yl)piperazin-1-yl)ethan-1-one], for which the remaining activity at 1 µM was 53% on CDK4/CyclinD1; 77% on CDK7/CyclinH/Mat1; 22% at CDK2/CyclinA2; 31% on CDK1/CyclinB; 70% at CDK6/CyclinD3. The Ki at FLT3-ITD came to 32 nM; at CDK9/CyclinT1 it was 91 nM. Further, in the experiment on MV-4-11, the GI50 turned out to be 27 nM.

In the case of `Brc1ccc2ncc(-c3ccnc(Nc4ccc(N5CCNCC5)nc4)n3)n2c1` [Compound 42, 4-(6-Bromoimidazo[1,2-a]pyridin-3-yl)-N-(6-(piperazin-1-yl)pyridin-3-yl)pyrimidin-2-amine], the remaining activity at 1 µM on CDK4/CyclinD1 was found to be 24%; at CDK7/CyclinH/Mat1, 27%. The Ki at FLT3-ITD was 9 nM; at CDK2/CyclinA2 it was 31 nM; at CDK9/CyclinT1, 29 nM; at CDK1/CyclinB, 78 nM; on CDK6/CyclinD3 it was above 500 nM. In the experiment on MV-4-11, the concentration for 50% growth inhibition (GI50) was found to be 22 nM.

Turning to `COc1ccc(-c2ccc3ncc(-c4ccnc(Nc5ccc(N6CCN(C)CC6)nc5)n4)n3c2)cn1` [Compound 43, 4-(6-(6-Methoxypyridin-3-yl)imidazo[1,2-a]pyridin-3-yl)-N-(6-(4-methylpiperazin-1-yl)pyridin-3-yl)pyrimidin-2-amine], the remaining activity at 1 µM on CDK4/CyclinD1 is 68%; on CDK7/CyclinH/Mat1, 41%; at CDK2/CyclinA2, 46%; at CDK1/CyclinB, 67%; at CDK6/CyclinD3, 46%. For the same compound, the Ki on FLT3-ITD came to 24 nM; at CDK9/CyclinT1 it was 66 nM. In the experiment on MV-4-11, the GI50 was found to be 40 nM.

Regarding `CC(=O)N1CCN(c2ccc(Nc3nccc(-c4cnc5ccc(Br)cn45)n3)cn2)CC1` [Compound 44, 1-(4-(5-((4-(6-Bromoimidazo[1,2-a]pyridin-3-yl)pyrimidin-2-yl)amino)pyridin-2-yl)piperazin-1-yl)ethan-1-one], the remaining activity at 1 µM at CDK4/CyclinD1 stood at 84%; at CDK7/CyclinH/Mat1, 77%; on CDK2/CyclinA2, 28%; on CDK1/CyclinB it was 56%; at CDK6/CyclinD3, 55%. Further, the Ki at FLT3-ITD was 137 nM; on CDK9/CyclinT1, 719 nM. In addition, in the experiment on MV-4-11, the 50% growth inhibitory concentration (GI50) came to 21 nM.

On to `CC(=O)N1CCN(c2ccc(Nc3nccc(-c4cnc5ccc(-c6ccccc6)cn45)n3)cn2)CC1` [Compound 45, 1-(4-(5-((4-(6-Phenylimidazo[1,2-a]pyridin-3-yl)pyrimidin-2-yl)amino)pyridin-2-yl)piperazin-1-yl)ethan-1-one], for which the remaining activity at 1 µM on CDK4/CyclinD1 was found to be 91%; on CDK7/CyclinH/Mat1, 79%; at CDK2/CyclinA2, 63%; at CDK1/CyclinB it was 60%; at CDK6/CyclinD3, 60%. Further, the figures for the Ki on FLT3-ITD and at CDK9/CyclinT1 were 444 nM and 54 nM, respectively. In the experiment on MV-4-11, the GI50 was found to be 12 nM.

Turning to `CC(=O)N1CCN(c2ccc(Nc3nccc(-c4cnc5ccc(-c6ccncc6)cn45)n3)cn2)CC1` [Compound 46, 1-(4-(5-((4-(6-(Pyridin-4-yl)imidazo[1,2-a]pyridin-3-yl)pyrimidin-2-yl)amino)pyridin-2-yl)piperazin-1-yl)ethan-1-one], the remaining activity at 1 µM amounted to 92% at CDK4/CyclinD1; 71% at CDK7/CyclinH/Mat1; 62% on CDK2/CyclinA2; 21% on CDK1/CyclinB; 31% on CDK6/CyclinD3. For the same compound, the inhibition constant Ki was 80 nM at FLT3-ITD and 310 nM on CDK9/CyclinT1. The GI50 with MV-4-11 came to 25 nM.

On to `CC(=O)N1CCN(c2ccc(Nc3nccc(-c4cnc5ccc(-c6cn[nH]c6)cn45)n3)cn2)CC1` [Compound 47, 1-(4-(5-((4-(6-(1H-Pyrazol-4-yl)imidazo[1,2-a]pyridin-3-yl)pyrimidin-2-yl)amino)pyridin-2-yl)piperazin-1-yl)ethan-1-one], for which the remaining activity at 1 µM on CDK4/CyclinD1 was found to be 51%. The inhibition constant Ki came out at 262 nM on CDK7/CyclinH/Mat1; 25 nM on FLT3-ITD; 39 nM on CDK2/CyclinA2; 45 nM at CDK9/CyclinT1; 116 nM at CDK1/CyclinB; 444 nM on CDK6/CyclinD3. Besides, in the experiment on MV-4-11, the 50% growth inhibitory concentration (GI50) was found to be 29 nM.

Source of the values: US20240158391A1, “DERIVATIVES OF 4-(IMIDAZO[1,2-A]PYRIDIN-3-YL)-N-(PYRIDIN-3-YL) PYRIMIDIN-2- AMINE FOR TREATING PROLIFERATIVE DISEASES AND CONDITIONS” (AUCENTRA THERAPEUTICS PTY LTD, priority 2019, published 2024).
